Reference: patent US20060057069A1, “Detection of protein expression in vivo using fluorescent puromycin conjugates” (CALIFORNIA INSTITUTE OF TECHNOLOGY, priority 2004, published 2006)
Structures can show the parent of a compound that is named as a salt. Where two headings read alike, the source gives them in different places.

Legend:
[1] = system: cultured hippocampal neurons; experiment: F2P (fluorescein-dC-puromycin) reporter of endogenous protein synthesis in cultured hippocampal neurons; assay type: cell-based, rat; conditions: for effect of co-application on basal F2P fluorescence in dendrites: co-application with F2P
Procedure: Dissociated hippocampal neurons were prepared and maintained as previously described. Briefly, hippocampi from postnatal day 2 Sprague-Dawley rat pups were enzymatically and mechanically dissociated and plated into poly-lysine coated glass-bottom petri dishes (Mattek). Neurons were maintained for 14-21 days at 37° C. in growth medium (Neurobasal A supplemented with B27 and Glutamax-1, Invitrogen).
All images were acquired with an Olympus IX-70 confocal laser scanning microscope running Fluoview software (Olympus America, Inc). GFP, Alexa 488, and F2P were excited with the 488 nm line of an argon ion laser, and emitted light was collected between 510 and 550 nm. Alexa 568 was excited with the 568 nm line of a krypton ion laser, and emitted light was collected above 600 nm. In experiments where two channels were acquired simultaneously, settings were chosen to ensure no signal bleed-through between channels. For between-dish comparisons on a given day, all images were acquired at the same settings, without knowledge of the experimental condition during image acquisition. All post-acquisition processing and analysis was carried out with ImageJ (NIH) and Matlab (The MathWorks, Inc.). To facilitate the analysis of fluorescence signal as a function of distance from the soma, dendrites were linearized and extracted from the full-frame image using a modified version of the Straighten plugin for ImageJ.
To determine whether D1/D5 receptors activate the translation of endogenous mRNAs in living neurons, fluorescein-dC-puromycin (F2P), a novel protein synthesis reporter based on the peptidyl transferase inhibitor puromycin [35] was used. Because puromycin is a structural analog of an amino-acyl tRNA molecule, it enters ribosomes actively engaged in translation where it becomes covalently attached to the carboxy-terminus of nascent proteins through a peptide linkage. Initially, whether F2P can serve as a protein synthesis reporter in cultured hippocampal neurons was examined (FIGS. 11A, B). […] (FIG. 11B).

16610D9 thymocyte cells [2] = experiment: Western analysis of treated cells with anti-fluorescein antibody; assay type: cell-based, mouse; conditions: conjugates 25 μM; anisomycin 250 ng/mL
Procedure: Live cell number was determined using trypan blue exclusion dye and each sample was adjusted to contain an equal number of live cells. Cell pellets were resuspended in 2× lysis buffer (100 mM β-glycerophosphate, 3 mM EGTA, 2 mM EDTA, 0.2 mM sodium-orthovanadate, 2 mM DTT, 20 μg/ml aprotinin, 20 μg/ml leupeptin, 50 μg/ml trypsin inhibitor, and 4 μg/ml pepstatin, and 1% Triton X-100) and incubated on ice for 30 min. Cell debris was removed by centrifugation at 20,000×g for 30 min. Cell lysate was combined with SDS loading buffer (0.12 M Tris-Cl (pH 6.8), 20% glycerol, 4% (w/v) SDS, 2% (v/v) β-mercaptoethanol, and 0.001% bromophenol blue) and heated at 90° C. for 10 min. Samples were applied entirely to a 4% stacking portion of a 10% glycine-SDS-polyacrylamide gel (30 mA for 1 h, 30 min). Protein was transferred using standard Western transfer techniques and the blot was probed with an anti-fluorescein antibody followed by an anti-rabbit-horseradish peroxidase conjugate (Pierce chemicals). The chemiluminescence reaction was carried out using the ECL PLUS Western Blotting […] System (Amersham BioSciences).
Action of puromycin and the conjugates should result in proteins bearing these compounds at their C-terminus in vivo. Western blot analysis of cellular lysates was chosen to examine if incorporation occurred in vivo and compare the resulting signal with the control conjugates. […]

dopamine D1/D5 receptor = experiment: GFP protein synthesis reporter imaging in cultured hippocampal neurons; assay type: cell-based, rat; conditions: co-application with SKF
Procedure: Dissociated hippocampal neurons were prepared and maintained as previously described [34]. Briefly, hippocampi from postnatal day 2 Sprague-Dawley rat pups were enzymatically and mechanically dissociated and plated into poly-lysine coated glass-bottom petri dishes (Mattek). Neurons were maintained for 14-21 days at 37° C. in growth medium (Neurobasal A supplemented with B27 and Glutamax-1, Invitrogen).
All images were acquired with an Olympus IX-70 confocal laser scanning microscope running Fluoview software (Olympus America, Inc). GFP, Alexa 488, and F2P were excited with the 488 nm line of an argon ion laser, and emitted light was collected between 510 and 550 nm. Alexa 568 was excited with the 568 nm line of a krypton ion laser, and emitted light was collected above 600 nm. […] To facilitate the analysis of fluorescence signal as a function of distance from the soma, dendrites were linearized and extracted from the full-frame image using a modified version of the Straighten plugin for ImageJ.
Dendrites were analyzed for time-lapse as follows: fluorescence was averaged across the width of linearized dendrites, generating a vector of mean pixel intensities equal to the length of the dendrite, ΔF/F (Ftn-Ft0/Ft0) was then computed at each pixel along the dendritic length. […]

D1/D5 receptors = experiment: Miniature excitatory postsynaptic currents (mEPSCs) in cultured hippocampal neurons; assay type: cell-based, rat; conditions: anisomycin with DHX; PKI6-22 in the recording pipette
Description: Given the increase in the total and synaptic GluRl population, the effects of dopamine agonists on synaptic transmission was examined. To monitor synaptic strength before and after exposure to a dopamine agonist, miniature excitatory postsynaptic currents (mEPSCs) in cultured hippocampal neurons were examined.

[3] = system: 16610D9 cells infected with MIG; experiment: Killing of MIG-infected (no PAC resistance) cells, flow cytometry; assay type: cell-based, mouse; conditions: long exposure, 48 h incubation
Procedure: (§1) The PAC gene was cloned into MIG using BgII and EcoRI restriction sites to yield MIGPAC. 293T-HEK fibroblasts (American Tissue Culture Collection) were co-transfected with pECL-Eco [30] and MIG or MIGPAC by calcium phosphate precipitation. After 12 hours, the precipitate was removed, cells were washed once with PBS, and 4 mL of fresh complete Dulbecco's Modified Eagle Medium (DMEM) supplemented with 10% fetal calf serum (FCS). Viral supernatant was removed 24 hours later and used in infection of 16610D9 cells. One million D9 cells were spin-infected with 0.4 mL of viral supernatant suplemented with 5 μg/ml Polybrene (Sigma-Aldrich).
(§2) 16610D9 cells infected with either MIG of MIGPAC were cultured in RPMI media with 10% FBS and grown at […] in a humidified atmosphere with 5% CO2. For each experiment, 16610D9 cells (0.25×10^6/well) were added to 24-well microtiter plates along with puromycin, puromycin-conjugate, and control molecules dissolved in the minimum amount of either media or PBS. After a 48 h incubation, the cells were washed twice in 2 mL PBS+4% FCS and resuspended in PBS+4% FCS supplemented with 2% formaldehyde along with incubation at 37° C. for 10 min. […]
(§3) Foreign genes can be inserted into D9 cells by infection with a viral vector (see Experimental Procedures). […] MIG expresses GFP so that infection efficiency can be monitored by GFP fluorescence (FIG. 7A). […]

[4] = system: 16610D9 cells infected with MIGPAC; experiment: Enrichment of GFP(+) MIGPAC-infected (PAC-expressing) cells, flow cytometry; assay type: cell-based, mouse; conditions: 48 h; 4.3% GFP-positive before treatment
Procedure: as §1, §2, §3

16610D9 thymocyte cells [5] = experiment: Detection of protein synthesis events in live cells by flow cytometry (fluorescence labeling); assay type: cell-based
Procedure: 16610D9 cells (0.5 million mL^−1) were combined with the various puromycin conjugates and control molecules resuspended in the minimum volume of PBS or media as described above. After a 24 h incubation, the cells were washed twice in 2 mL PBS+4% FCS and resuspended in PBS+4% FCS supplemented with 2% formaldehyde followed by incubation at 37° C. for 10 min or used directly after washing for immediate flow cytometry analysis.
In order to analyze the activity of puromycin conjugates in vivo, choosing of both an appropriate cell line and an appropriate quantitation and detection scheme was needed. While microscopy is a powerful means to analyze individual cells and small sections of tissue, performance of experiments where thousands to millions of cells could be examined for protein labeling was desired. Therefore, flow cytometry was chosen as the primary means to analyze uptake and incorporation of the conjugates. In addition to providing a quantitative measure of fluorescence and cell size, flow cytometry methods enable live cells and dead cells to be readily distinguished.

globin translation [6] = conditions: previously shown, ref [14]; read-out: IC50 (in vitro translation inhibition) from reference [14]; cited from earlier work
globin translation [7] = experiment: In vitro potency determination: inhibition of globin mRNA translation in rabbit reticulocyte lysate; assay type: biochemical; conditions: read-out: IC50: concentration of puromycin conjugate required for 50% inhibition of globin translation, 30° C. 60 min, standard error <5% in replicates
Procedure: Translation reactions containing [^35S]Met were mixed in batch on ice and added in aliquots to microcentrifuge tubes containing an appropriate amount of puromycin conjugate (or control molecule) dried in vacuo. […] Inhibitor, lysate preparation (including all components except template), and globin mRNA were mixed simultaneously and incubated at 30° C. for 60 min. Each reaction (2 μL) was combined with 8 μL of tricine loading buffer (80 mM Tris-Cl (pH 6.8), 200 mM DTT, 24% (v/v) glycerol, 8% sodium dodecyl sulfate (SDS), and 0.02% (w/v) Coomassie blue G-250), heated to 90° C. for 5 min, and applied entirely to a 4% stacking portion of a 15% tricine-SDS-polyacrylamide gel containing 20% (v/v) glycerol [29] (30 mA for 1 h, 30 min). Gels were fixed in 10% acetic acid (v/v) and 50% (v/v) methanol, dried, exposed overnight on a Phosphorlmager screen, and analyzed using a Storm Phosphorlmager (Molecular Dynamics).
Initial analysis began by examining the activity of each of the conjugates in vitro for their ability to inhibit protein translation.

[8] = 24 h incubation, conjugates at 50 μM, live-cell gate

Oc1cc2c(cc1O)[C@H]1c3ccccc3CN[C@@H]1CC2 (racemic) [DHX, dihydrexidine]
F2P incorporation in locally perfused dendrites compared to control dendrites ([1]; perfused 15 minutes on dendritic segment, p<0.05, n=8 dendrites): significantly greater F2P incorporation

COc1ccc(C[C@H]2NC[C@H](O)[C@H]2OC(C)=O)cc1 [anisomycin]
incorporation into cellular protein (anti-fluorescein Western signal) (16610D9 thymocyte cells [2]): essentially no signal | effect of co-application on the effects of SKF on GFP signal (dopamine D1/D5 receptor): completely prevented | effect of co-application on basal F2P fluorescence in dendrites [1]: significantly attenuated | effect on DHX-produced enhancement of F2P incorporation ([1]; preincubation and perfusion with anisomycin, p<0.01): completely blocked | effect on DHX-induced increase in mEPSC frequency (D1/D5 receptors): completely prevented

COc1ccc(C[C@H](N)C(=O)N[C@H]2[C@@H](O)[C@H](n3cnc4c(N(C)C)ncnc43)O[C@@H]2CO)cc1 [puromycin, L-Puromycin hydrochloride]
effect on MIG infected cells (killing) [3]: almost complete killing of both GFP-positive and GFP-negative cells | GFP-positive cells in population after treatment [4]: 94% | effect of co-application on basal F2P fluorescence in dendrites [1]: significantly attenuated

Fluorescein-puromycin [FP]
rank order of fluorescence enhancement (16610D9 thymocyte cells [5]; [8]): DMT-F2P-Me (12)>FB2P (1)˜BF2P (8)>F2P (4)˜F2P-Me (10)>FP | relative level of fluorescence enhancement (16610D9 thymocyte cells [5]; [8]): small fluorescence enhancement | IC50 (globin translation [6]): 120 µM

biotin-dC-puromycin
IC50 (globin translation [6]): 11 µM

biotin-puromycin
IC50 (globin translation [6]): 54 µM

fluorescein-dC-puromycin [F2P]
IC50 (globin translation [7]): 22 µM | enhanced fluorescence relative to the F2A control molecule (16610D9 thymocyte cells [5]; 5 μM and 25 μM, live cell population): up to 4 fold | effect on cell viability (16610D9 thymocyte cells [5]; 5 μM and 25 μM, F2P statement for 48 hours incubation): kills the majority of cells | rank order of fluorescence enhancement (16610D9 thymocyte cells [5]; [8]): DMT-F2P-Me (12)>FB2P (1)˜BF2P (8)>F2P (4)˜F2P-Me (10)>FP | F2P reporter fluorescence in neurons ([1]; brief (˜15 min) bath application): fluorescence detected in both the cell body and the dendrites
